What was measured:
human V1a receptor = target: T1, human V1a receptor (Homo sapiens, UniProt P37288); experiment: Cellular in vitro assay for determining vasopressin receptor activity, V1a receptor cell line (photoprotein luminescence); assay type: cell-based; conditions: CHO cell line transfected with human V1a receptor; [Arg8]-vasopressin at EC50; compounds of the invention (Table 1A); read-out: IC50 hV1a
T1 construct: expressed in transfected cells; host or cells: CHO K1 (ATCC), also stably transfected with modified aequorin
T1 sequence (P37288 whole entry): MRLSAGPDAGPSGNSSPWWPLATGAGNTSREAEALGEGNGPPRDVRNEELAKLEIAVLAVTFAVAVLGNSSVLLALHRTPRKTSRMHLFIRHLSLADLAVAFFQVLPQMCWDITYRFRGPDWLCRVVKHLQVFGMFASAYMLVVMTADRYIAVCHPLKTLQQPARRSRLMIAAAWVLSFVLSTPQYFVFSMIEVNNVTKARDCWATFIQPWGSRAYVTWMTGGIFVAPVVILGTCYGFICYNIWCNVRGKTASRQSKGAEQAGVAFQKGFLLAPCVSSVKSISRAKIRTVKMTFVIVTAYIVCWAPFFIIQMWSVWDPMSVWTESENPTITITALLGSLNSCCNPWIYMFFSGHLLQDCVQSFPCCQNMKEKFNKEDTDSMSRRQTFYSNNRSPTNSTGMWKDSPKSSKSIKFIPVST
Method: (§1) The identification of agonists and antagonists of the V1a and V2 vasopressin receptors from humans, rats and dogs as well as the quantification of the activity of the compounds of the invention is carried out using recombinant cell lines. These cell lines originally derive from a hamster's ovary epithelial cell (Chinese Hamster Ovary, CHO K1, ATCC: American Type Culture Collection, Manassas, Va. 20108, USA). The test cell lines constitutively express the human, rat or dog V1a or V2 receptors. In case of the […] V1a receptors, cells are also stably transfected with a modified form of the calcium-sensitive photoproteins aequorin (human and rat V1a) or obelin (dog V1a), which, after reconstitution with the cofactor coelenterazine, emit light when there are increases in free calcium concentrations [Rizzuto R, Simpson A W, Brini M, Pozzan T, Nature 358, 325-327 (1992); Illarionov B A, Bondar V S, Illarionova V A, Vysotski E S, Gene 153 (2), 273-274 (1995)]. The resulting vasopressin receptor cells react to stimulation of the recombinantly expressed V1a receptors by intracellular release of calcium ions, which can be quantified by the resulting photoprotein luminescence. The Gs-coupled V2 receptors are stably transfected into cell lines expressing the gene for firefly luciferase under control of a CRE-responsible promoter. Activation of V2 receptors induces the activation of the CRE-responsive promoter via cAMP increase, thereby inducing the expression of firefly luciferase. The light emitted by photoproteins of V1a cell lines as well as the light emitted by firefly luciferase of V2 cell lines corresponds to the activation or inhibition of the respective vasopressin receptor. The bioluminescence of the cell lines is detected using a suitable luminometer [Milligan G, Marshall F, Rees S, Trends in Pharmacological Sciences 17, 235-237 (1996)].
On the day before the assay, the cells are plated out in culture medium (DMEM/F12, 2% FCS, 2 mM glutamine, 10 mM HEPES, 5 μg/ml coelenterazine) in 384-well microtiter plates and kept in a cell incubator (96% humidity, 5% v/v CO2, 37° C.). On the day of the assay, test compounds in various concentrations are placed for 10 minutes in the wells of the microtiter plate before the agonist [Arg^8]-vasopressin at EC50 concentration is added. The resulting light signal is measured immediately in the luminometer.
(§2) Table 1A below lists individual IC50 values for the compounds of the invention (including diastereomeric mixtures as well as separated, enantiopure diastereomers) that were obtained from cell lines transfected with the human V1a or V2 receptor: […]

human V2 receptor = target: T2, human V2 receptor (Homo sapiens, UniProt P30518); experiment: Cellular in vitro assay for determining vasopressin receptor activity, V2 receptor cell line (CRE-luciferase); assay type: cell-based; conditions: CHO cell line transfected with human V2 receptor; [Arg8]-vasopressin at EC50; compounds of the invention (Table 1A); read-out: IC50 hV2
T2 construct: expressed in transfected cells; host or cells: CHO K1 (ATCC) expressing firefly luciferase under a CRE-responsive promoter
T2 sequence (P30518 whole entry): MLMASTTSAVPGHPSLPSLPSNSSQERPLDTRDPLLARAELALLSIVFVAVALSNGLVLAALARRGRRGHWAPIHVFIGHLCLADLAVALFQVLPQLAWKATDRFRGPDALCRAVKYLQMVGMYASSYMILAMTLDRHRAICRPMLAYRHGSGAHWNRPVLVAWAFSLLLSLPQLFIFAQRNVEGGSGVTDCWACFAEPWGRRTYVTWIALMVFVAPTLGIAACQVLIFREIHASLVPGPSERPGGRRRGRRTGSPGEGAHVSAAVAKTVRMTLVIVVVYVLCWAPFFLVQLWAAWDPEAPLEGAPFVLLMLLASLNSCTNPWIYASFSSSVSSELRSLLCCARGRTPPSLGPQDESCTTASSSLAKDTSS
Method: as §1
On the day before the assay, the cells are plated out in culture medium (DMEM/F12, 2% FCS, 2 mM glutamine, 10 mM HEPES) in 384-well microtiter plates and kept in a cell incubator (96% humidity, 5% v/v CO2, 37° C.). […] Upon addition of the cell lysis reagent Triton and the substrate luciferin, luminescence of firefly luciferase is measured in a luminometer.
as §2

CC(O)c1nc(Cn2nc(-c3ccc(Cl)cc3)n(C[C@H](O)C(F)(F)F)c2=O)nn1-c1cccc(OC(F)F)c1 (mixture of isomers) [Example 55, 5-(4-Chlorophenyl)-2-({1-[3-(difluoromethoxy)phenyl]-5-[(1RS)-1-hydroxyethyl]-1H-1,2,4-triazol-3-yl}methyl)-4-[(2S)-3,3,3-trifluoro-2-hydroxypropyl]-2,4-dihydro-3H-1,2,4-triazol-3-one]
IC50 (human V1a receptor): 14.8 nM
IC50 (human V2 receptor): 4.2 nM

CC(O)c1nc(Cn2nc(-c3ccc(Cl)cc3)n(C[C@H](O)C(F)(F)F)c2=O)nn1-c1cc(F)ccc1Cl (mixture of isomers) [Example 58, 2-({1-(2-Chloro-5-fluorophenyl)-5-[(1RS)-1-hydroxyethyl]-1H-1,2,4-triazol-3-yl}methyl)-5-(4-chlorophenyl)-4-[(2S)-3,3,3-trifluoro-2-hydroxypropyl]-2,4-dihydro-3H-1,2,4-triazol-3-one]
IC50 (human V1a receptor): 0.2 nM
IC50 (human V2 receptor): 1.5 nM

CC(O)c1nc(Cn2nc(-c3ccc(Cl)cc3)n(C[C@H](O)C(F)(F)F)c2=O)nn1-c1cccc(Cl)c1Cl (mixture of isomers) [Example 61, 5-(4-Chlorophenyl)-2-({1-(2,3-dichlorophenyl)-5-[(1RS)-1-hydroxyethyl]-1H-1,2,4-triazol-3-yl}-methyl)-4-[(2S)-3,3,3-trifluoro-2-hydroxypropyl]-2,4-dihydro-3H-1,2,4-triazol-3-one]
IC50 (human V1a receptor): 3.2 nM
IC50 (human V2 receptor): 0.2 nM

CC(O)c1nc(Cn2nc(-c3ccc(Cl)cc3)n(C[C@H](O)C(F)(F)F)c2=O)nn1-c1cccc(F)c1F (mixture of isomers) [Example 64, 5-(4-Chlorophenyl)-2-({1-(2,3-difluorophenyl)-5-[(1RS)-1-hydroxyethyl]-1H-1,2,4-triazol-3-yl}-methyl)-4-[(2S)-3,3,3-trifluoro-2-hydroxypropyl]-2,4-dihydro-3H-1,2,4-triazol-3-one]
IC50 (human V1a receptor): 8.1 nM
IC50 (human V2 receptor): 5.1 nM

CC(O)c1nc(Cn2nc(-c3ccc(Cl)cc3)n(C[C@H](O)C(F)(F)F)c2=O)nn1-c1cccc(F)c1 (mixture of isomers) [Example 75, 5-(4-Chlorophenyl)-2-({1-(3-fluorophenyl)-5-[(1RS)-1-hydroxyethyl]-1H-1,2,4-triazol-3-yl}-methyl)-4-[(2S)-3,3,3-trifluoro-2-hydroxypropyl]-2,4-dihydro-3H-1,2,4-triazol-3-one]
IC50 (human V1a receptor): 2.9 nM
IC50 (human V2 receptor): 6.6 nM

CC(O)c1nc(Cn2nc(-c3ccc(Cl)cc3)n(C[C@H](O)C(F)(F)F)c2=O)nn1-c1cccc(Cl)c1 (mixture of isomers) [Example 78, 5-(4-Chlorophenyl)-2-({1-(3-chlorophenyl)-5-[(1RS)-1-hydroxyethyl]-1H-1,2,4-triazol-3-yl}-methyl)-4-[(2S)-3,3,3-trifluoro-2-hydroxypropyl]-2,4-dihydro-3H-1,2,4-triazol-3-one]
IC50 (human V1a receptor): 10.4 nM
IC50 (human V2 receptor): 3.1 nM

COc1ccccc1-n1nc(Cn2nc(-c3ccc(Cl)cc3)n(C[C@H](O)C(F)(F)F)c2=O)nc1C(C)O (single isomer, unassigned) [Example 11]
IC50 (human V1a receptor): 0.4 nM
IC50 (human V2 receptor): 0.3 nM

COc1ccccc1-n1nc(Cn2nc(-c3ccc(Cl)cc3)n(C[C@H](O)C(F)(F)F)c2=O)nc1C(C)O (single isomer, unassigned) [Example 12]
IC50 (human V1a receptor): 1.3 nM
IC50 (human V2 receptor): 1.1 nM

CC(O)c1nc(Cn2nc(-c3ccc(Cl)cc3)n(C[C@H](O)C(F)(F)F)c2=O)nn1-c1ccccc1 (single isomer, unassigned) [Example 18]
IC50 (human V1a receptor): 14.1 nM
IC50 (human V2 receptor): 8.6 nM

CC(O)c1nc(Cn2nc(-c3ccc(Cl)cc3)n(C[C@H](O)C(F)(F)F)c2=O)nn1-c1cccc(C(F)F)c1 (single isomer, unassigned) [Example 20]
IC50 (human V1a receptor): 3.8 nM
IC50 (human V2 receptor): 0.8 nM

CC(O)c1nc(Cn2nc(-c3ccc(Cl)cc3)n(C[C@H](O)C(F)(F)F)c2=O)nn1-c1cccc(C(F)F)c1 (single isomer, unassigned) [Example 21]
IC50 (human V1a receptor): 57.8 nM
IC50 (human V2 receptor): 2.2 nM

CC(O)c1nc(Cn2nc(-c3ccc(Cl)cc3)n(C[C@H](O)C(F)(F)F)c2=O)nn1-c1cccc(C(F)(F)F)c1 (single isomer, unassigned) [Example 23]
IC50 (human V1a receptor): 12.2 nM
IC50 (human V2 receptor): 0.9 nM

CC(O)c1nc(Cn2nc(-c3ccc(Cl)cc3)n(C[C@H](O)C(F)(F)F)c2=O)nn1-c1cccc(C(F)(F)F)c1 (single isomer, unassigned) [Example 24]
IC50 (human V1a receptor): 120 nM
IC50 (human V2 receptor): 2 nM

CC(O)c1nc(Cn2nc(-c3ccc(Cl)cc3)n(C[C@H](O)C(F)(F)F)c2=O)nn1-c1cc(F)cc(F)c1 (single isomer, unassigned) [Example 26]
IC50 (human V1a receptor): 3.1 nM
IC50 (human V2 receptor): 3 nM

CC(O)c1nc(Cn2nc(-c3ccc(Cl)cc3)n(C[C@H](O)C(F)(F)F)c2=O)nn1-c1cc(F)cc(F)c1 (single isomer, unassigned) [Example 27]
IC50 (human V1a receptor): 43.7 nM
IC50 (human V2 receptor): 7.7 nM

Cc1cccc(-n2nc(Cn3nc(-c4ccc(Cl)cc4)n(C[C@H](O)C(F)(F)F)c3=O)nc2C(C)O)c1 (single isomer, unassigned) [Example 30]
IC50 (human V1a receptor): 71.6 nM
IC50 (human V2 receptor): 0.4 nM

CCc1ccccc1-n1nc(Cn2nc(-c3ccc(Cl)cc3)n(C[C@H](O)C(F)(F)F)c2=O)nc1C(C)O (single isomer, unassigned) [Example 32]
IC50 (human V1a receptor): 0.9 nM
IC50 (human V2 receptor): 1 nM

CCc1ccccc1-n1nc(Cn2nc(-c3ccc(Cl)cc3)n(C[C@H](O)C(F)(F)F)c2=O)nc1C(C)O (single isomer, unassigned) [Example 33]
IC50 (human V1a receptor): 1.6 nM
IC50 (human V2 receptor): 2.3 nM

CC(O)c1nc(Cn2nc(-c3ccc(Cl)cc3)n(C[C@H](O)C(F)(F)F)c2=O)nn1-c1ccc(F)cc1Cl (single isomer, unassigned) [Example 35]
IC50 (human V1a receptor): 0.5 nM
IC50 (human V2 receptor): 1.6 nM

CC(O)c1nc(Cn2nc(-c3ccc(Cl)cc3)n(C[C@H](O)C(F)(F)F)c2=O)nn1-c1ccc(F)cc1Cl (single isomer, unassigned) [Example 36]
IC50 (human V1a receptor): 0.8 nM
IC50 (human V2 receptor): 2.8 nM

COc1ccc(F)cc1-n1nc(Cn2nc(-c3ccc(Cl)cc3)n(C[C@H](O)C(F)(F)F)c2=O)nc1C(C)O (single isomer, unassigned) [Example 38]
IC50 (human V1a receptor): 0.6 nM
IC50 (human V2 receptor): 0.9 nM

COc1ccc(F)cc1-n1nc(Cn2nc(-c3ccc(Cl)cc3)n(C[C@H](O)C(F)(F)F)c2=O)nc1C(C)O (single isomer, unassigned) [Example 39]
IC50 (human V1a receptor): 1.5 nM
IC50 (human V2 receptor): 3.5 nM

CC(O)c1nc(Cn2nc(-c3ccc(Cl)cc3)n(C[C@H](O)C(F)(F)F)c2=O)nn1-c1ccccc1F (single isomer, unassigned) [Example 41]
IC50 (human V1a receptor): 1.8 nM
IC50 (human V2 receptor): 7.9 nM

CC(O)c1nc(Cn2nc(-c3ccc(Cl)cc3)n(C[C@H](O)C(F)(F)F)c2=O)nn1-c1ccccc1F (single isomer, unassigned) [Example 42]
IC50 (human V1a receptor): 5.1 nM
IC50 (human V2 receptor): 12.7 nM

CC(O)c1nc(Cn2nc(-c3ccc(Cl)cc3)n(C[C@H](O)C(F)(F)F)c2=O)nn1-c1ccc(F)c(Cl)c1 (single isomer, unassigned) [Example 44]
IC50 (human V1a receptor): 6.1 nM
IC50 (human V2 receptor): 1.2 nM

CC(O)c1nc(Cn2nc(-c3ccc(Cl)cc3)n(C[C@H](O)C(F)(F)F)c2=O)nn1-c1ccc(F)c(Cl)c1 (single isomer, unassigned) [Example 45]
IC50 (human V1a receptor): 92.1 nM
IC50 (human V2 receptor): 3.3 nM

Reference: patent US9771352B2, “Hydroxyalkyl-substituted phenyltriazole derivatives and uses thereof” (BAYER PHARMA AKTIENGESELLSCHAFT, priority 2014, dated 2017)
